Laboratory results as given in PubChem BioAssay AID2305 (GlaxoSmithKline (GSK), 2010).
pIC50: −log10 of the molar value.

tested on: P. falciparum 3D7 growth, pLDH absorbance; test: P. falciparum 3D7 growth inhibition, dose response, strain 3D7 (AID 2305)

Going from `C[C@H](Cc1ccc(C[C@@H](C)NC[C@H](O)c2cccc(Cl)c2)cc1)NC[C@H](O)COc1ccccc1` to `O=[N+]([O-])c1cccc(CNC2CCN(Cc3ccc(-c4ccccc4)cc3)CC2)c1`, the pIC50 rises from 5.93 to 6.64 (0.71 log units). The second is the more potent here.

Going from `COc1cc(-c2cc(-c3ccc(OCCN(C)C)cc3)[nH]c2-c2ccncc2)ccc1Cl` to `CC1(C)C=C(c2ccncc2)c2cc(Cl)ccc2O1`, the pIC50 rises from 6.15 to 6.37 (0.22 log units). The second is the more potent here.

`Cc1cc(N2CC=CCC2)nc(/N=C(\N)Nc2ccc(Cl)cc2)n1` and `O=C(NC1CCCCN(Cc2ccccc2O)C1)c1ccc(Cl)c(Cl)c1` (stereo not given) are within 0.2 log units of each other in pIC50: 6.11 for the first, 6.12 for the second.

First: CCCC(C)Nc1nc(C)cc(N[C@@H](CC(C)C)C(=O)Nc2ccc(OC)cc2)n1 (stereo not given in full)
Second: COc1ccccc1N(C)CCNc1cc(C)nc(Nc2ccc(C)cc2)n1
The pIC50 of the first is 0.26 log units higher: 6.06 for the first, 5.80 for the second. The first is the more potent here.

Compared with `CCCCC(=O)Nc1nc2ccc([N+](=O)[O-])cc2s1`, `COc1cc(C)nc2ccc(NC(=O)c3cc([N+](=O)[O-])cc([N+](=O)[O-])c3)cc12` is 0.29 log units higher in pIC50: 6.12 for the first, 6.41 for the second.

First: O=C(Nc1cn(-c2ccc(OCc3cccc(F)c3)c(Cl)c2)c2ncncc12)c1ccncc1
Second: NC(=O)Nc1ccc2c(Nc3ccc(OCc4ccccc4)cc3)ncnc2c1
The pIC50 of the first is 0.87 log units higher: 6.77 for the first, 5.90 for the second. The first is the more potent here.

`CC[C@H]1CN2CC[C@@H]1C[C@H]2[C@H](O)c1cc(N2CCSCC2)nc2ccc(OC)cc12` and `CC[C@H]1CN2CC[C@H]1C[C@H]2[C@H](O)c1cc(-c2cccc(C)c2)nc2ccc(OC)cc12` are within 0.2 log units of each other in pIC50: 6.70 for the first, 6.80 for the second.

Compared with `Cc1noc(C)c1-c1cccc(CNCc2ccc(-c3cccc(-c4nc5ccc(C(F)(F)F)cc5[nH]4)c3)cc2)c1`, `Cc1cccc2[nH]c(-c3cccc(-c4ccc(CNCc5ccccc5)cc4)c3)nc12` is 0.57 log units higher in pIC50: 6.25 for the first, 6.82 for the second.

`NCc1ccc(-c2ccccc2CN(C(=O)Nc2ccccc2)C2CCN(Cc3ccccc3)CC2)cc1` and `CN1CCCN(Cc2ccc(-c3cccc(NC(=O)c4cccc(Cl)c4)c3)cc2)CC1` are within 0.2 log units of each other in pIC50: 6.06 for the first, 6.08 for the second.

`COc1c(C2CCN(CCCCNC(=O)c3cc(-c4ccc(Cl)cc4)oc3C)CC2)ccc2c1CCCC2` and `CC(C)NCc1ccc(-c2cccc(CN3CCC(c4ccccc4)CC3)c2)c(C(=O)NCC2CCCCC2)c1` are within 0.2 log units of each other in pIC50: 6.06 for the first, 6.07 for the second.

First: CC(C)Nc1cc(C(=O)N[C@@H](Cc2ccccc2)[C@H](O)CNC(C)(C)c2cccc(C(F)(F)F)c2)cc(N2CCCCS2(=O)=O)c1
Second: N#Cc1ccc(-c2nc3c(N4CCCC4)cccc3n2CCNCc2ccccc2)cc1
The pIC50 of the first is 0.87 log units higher: 7.10 for the first, 6.23 for the second. The first is the more potent here.

`O=C(NC1CCC(CN2CCC(c3c[nH]c4ccccc34)CC2)CC1)c1csc(-c2ccc(C(F)(F)F)cc2Cl)n1` (stereo not given) and `COc1ccc2cc(C(=O)NC3CCC(CCN4CCc5cc(C#N)ccc5C4)CC3)[nH]c2c1` (stereo not given) are within 0.2 log units of each other in pIC50: 6.08 for the first, 6.00 for the second.

`O=c1cc(NCCCCNCc2cccc(Cl)c2)[nH]c2ccccc12` and `O=C(/C=C/c1ccc(CNCCN2CCOCC2)cc1)NCCc1ccccc1` are within 0.2 log units of each other in pIC50: 6.13 for the first, 6.07 for the second.

`Cc1ccc(CN(Cc2ccc(C(=O)N(C)C)cc2)Cc2ccc3c(c2)OCCO3)cc1C` and `CCCNC(=O)c1ccnc(-c2ccc(CNC3Cc4ccccc4C3)cc2)c1` are within 0.2 log units of each other in pIC50: 6.10 for the first, 6.03 for the second.

`CN(C1CCC(NC(=O)/C=C/c2ccccc2)CC1)C1CC2(CCN(C(=O)OC(C)(C)C)CC2)c2ccccc21` (stereo not given) and `CC(CNC(=O)[C@H]1CNCCN1C(=O)CCCc1ccccc1)c1ccccc1` (stereo not given in full) are within 0.2 log units of each other in pIC50: 6.09 for the first, 6.04 for the second.

Compared with `Clc1nc2ccccn2c1C=Cc1ccc2ccccc2n1`, `CCn1c(C=Cc2cc(Br)ccc2O)nc2ccccc2c1=O` is 0.38 log units lower in pIC50: 6.57 for the first, 6.19 for the second. The first is the more potent here.

`CN(C)CCC1CCCc2ccc(NC(=O)Nc3cccc(Cl)c3Cl)cc21` (stereo not given) and `O=C(/C=C/c1ccc(Cl)c(Cl)c1)NCCCCCN1CCC(NC(=O)Nc2ccc3c(c2)OCO3)CC1` are within 0.2 log units of each other in pIC50: 6.02 for the first, 6.15 for the second.

`COc1ccc(CN2CCN(CCOC(c3ccccc3)c3ccc(Cl)cc3)CC2)c(O)c1` (stereo not given) and `Cn1cc(CN2CCCC(COC(c3ccccc3)c3ccccc3)C2)cn1` (stereo not given) are within 0.2 log units of each other in pIC50: 6.15 for the first, 6.11 for the second.

`Nc1c2c(nc3ccc(C(=O)Nc4cc(I)c(O)c(I)c4)cc13)CCCC2` and `CCOc1cc(C(=O)Nc2ccc3nc(N(CC)CC)cc(C)c3c2)cc(OCC)c1OCC` are within 0.2 log units of each other in pIC50: 6.00 for the first, 6.15 for the second.

First: CC(C)Cc1cn(-c2nc(-c3nc4ccccc4[nH]3)cs2)c2ccncc12
Second: c1ccc(-c2csc(Nc3nc4cc5c(cc4s3)OCO5)n2)nc1
The pIC50 of the first is 0.81 log units higher: 7.05 for the first, 6.24 for the second.

Going from `CCOc1ccccc1NC(=O)C(Sc1nc(C)cc(C)c1C#N)c1ccccc1` (stereo not given) to `CN1CCCN(c2ccnc3cc4c(cc23)N(C(=O)c2ccccc2Cl)CC4)CC1`, the pIC50 falls from 6.43 to 5.93 (0.50 log units).

First: CCCCCCN1CCCN(Cc2ccc(C(=O)Nc3ccc(F)c(F)c3)cc2)CC1
Second: Cc1ccc(CN2CCN(c3cc4c(cc3Cl)CCN4C(=O)Cc3ccc(Cl)c(NC(=O)Nc4cccc(C#N)c4)c3)CC2)cc1
The pIC50 of the first is 0.26 log units higher: 6.21 for the first, 5.95 for the second.

First: CC1CCCN(S(=O)(=O)c2cc(Br)cc3c2N(C(=O)C2CC2)CC3)C1 (stereo not given)
Second: N=c1n(CCN2CCCCC2)c2ccccc2n1CC(O)c1cccc(Br)c1 (stereo not given)
The pIC50 of the first is 0.20 log units higher: 6.14 for the first, 5.94 for the second.

`CN(C)Cc1c(O)ccc2[nH]c(-c3ccc(OC(F)(F)F)cc3)nc12` and `COc1ccc(-c2nc3c(N)nc(N)nc3nc2-c2ccccc2Cl)cc1` (tested in a mixture with another compound) are within 0.2 log units of each other in pIC50: 6.14 for the first, 6.26 for the second.

`CN1CCN(c2ccc(Nc3nc(N)c4ccn(C5CCC5)c4n3)cc2)CC1` and `COc1ccc2ncc(Cl)c(CCN3CC[C@@H](CNCc4cc5c(cn4)OCS5)C3)c2n1` are within 0.2 log units of each other in pIC50: 5.91 for the first, 6.09 for the second.
